In the NIST ThermoML archive (doi:10.1016/j.fluid.2010.10.028):

Assay: xn = mol fraction of the nth substance listed
Details: Liquid, Vibrating tube method

CC(C)=O [acetone] + CCCCCCC
Details	mass density [kg/m3]
337.69 K, 970 kPa, x1 = 0.801	700.39
337.69 K, 4850 kPa, x1 = 0.801	706.05
337.69 K, 9830 kPa, x1 = 0.7024	699.81
337.69 K, 9840 kPa, x1 = 0.492	680.33
337.69 K, 9870 kPa, x1 = 0.801	712.82
337.69 K, 14820 kPa, x1 = 0.7024	705.98
337.69 K, 14860 kPa, x1 = 0.801	719.01
337.69 K, 14870 kPa, x1 = 0.492	686.47
337.69 K, 19850 kPa, x1 = 0.801	724.74
337.69 K, 19870 kPa, x1 = 0.492	692.06
337.69 K, 24790 kPa, x1 = 0.7024	717.01
337.69 K, 24840 kPa, x1 = 0.492	697.27
337.69 K, 24840 kPa, x1 = 0.801	730.15
337.69 K, 29870 kPa, x1 = 0.492	702.18
337.69 K, 39870 kPa, x1 = 0.7024	731.35
337.69 K, 49840 kPa, x1 = 0.801	752.9
337.69 K, 64830 kPa, x1 = 0.801	764.19
337.69 K, 84730 kPa, x1 = 0.7024	763.81
337.69 K, 89820 kPa, x1 = 0.7024	766.84
337.69 K, 94820 kPa, x1 = 0.7024	769.76
337.69 K, 99820 kPa, x1 = 0.7024	772.57
337.69 K, 104830 kPa, x1 = 0.7024	775.31
337.69 K, 109800 kPa, x1 = 0.7024	777.96
337.69 K, 114820 kPa, x1 = 0.7024	780.54
337.69 K, 119800 kPa, x1 = 0.7024	783.06
337.69 K, 124820 kPa, x1 = 0.7024	785.53
337.69 K, 129820 kPa, x1 = 0.7024	787.95
337.7 K, 930 kPa, x1 = 0.7024	687.32
337.7 K, 960 kPa, x1 = 0.492	668.07
337.7 K, 4830 kPa, x1 = 0.7024	693.05
337.7 K, 4860 kPa, x1 = 0.611	683.33
337.7 K, 4870 kPa, x1 = 0.492	673.74
337.7 K, 9860 kPa, x1 = 0.611	690.06
337.7 K, 14890 kPa, x1 = 0.611	696.23
337.7 K, 19800 kPa, x1 = 0.7024	711.67
337.7 K, 19850 kPa, x1 = 0.611	701.87
337.7 K, 24870 kPa, x1 = 0.611	707.18
337.7 K, 29860 kPa, x1 = 0.611	712.16
337.7 K, 29890 kPa, x1 = 0.7024	722.13
337.7 K, 34850 kPa, x1 = 0.492	706.79
337.7 K, 34850 kPa, x1 = 0.611	716.83
337.7 K, 34850 kPa, x1 = 0.801	739.96
337.7 K, 34880 kPa, x1 = 0.7024	726.85
337.7 K, 39850 kPa, x1 = 0.492	711.17
337.7 K, 39860 kPa, x1 = 0.611	721.28
337.7 K, 39860 kPa, x1 = 0.801	744.5
337.7 K, 44850 kPa, x1 = 0.7024	735.58
337.7 K, 44850 kPa, x1 = 0.801	748.79
337.7 K, 44860 kPa, x1 = 0.611	725.53
337.7 K, 49840 kPa, x1 = 0.7024	739.64
337.7 K, 49850 kPa, x1 = 0.611	729.53
337.7 K, 49860 kPa, x1 = 0.492	719.29
337.7 K, 54830 kPa, x1 = 0.611	733.35
337.7 K, 54830 kPa, x1 = 0.7024	743.51
337.7 K, 54850 kPa, x1 = 0.492	723.05
337.7 K, 54850 kPa, x1 = 0.801	756.81
337.7 K, 59810 kPa, x1 = 0.7024	747.21
337.7 K, 59840 kPa, x1 = 0.801	760.56
337.7 K, 59850 kPa, x1 = 0.492	726.67
337.7 K, 59940 kPa, x1 = 0.611	737.16
337.7 K, 64800 kPa, x1 = 0.7024	750.79
337.7 K, 64840 kPa, x1 = 0.492	730.12
337.7 K, 64920 kPa, x1 = 0.611	740.68
337.7 K, 69780 kPa, x1 = 0.7024	754.21
337.7 K, 69840 kPa, x1 = 0.4	783.77
337.7 K, 69840 kPa, x1 = 0.8992	783.77
337.7 K, 69910 kPa, x1 = 0.611	744.03
337.7 K, 69930 kPa, x1 = 0.801	767.73
337.7 K, 74900 kPa, x1 = 0.611	747.3
337.7 K, 74910 kPa, x1 = 0.801	771.08
337.7 K, 79880 kPa, x1 = 0.611	750.44
337.7 K, 79880 kPa, x1 = 0.801	774.31
337.7 K, 84860 kPa, x1 = 0.611	753.48
337.7 K, 84870 kPa, x1 = 0.801	777.45
337.7 K, 89840 kPa, x1 = 0.611	756.41
337.7 K, 99810 kPa, x1 = 0.801	786.3
337.7 K, 109780 kPa, x1 = 0.801	791.8
337.7 K, 114850 kPa, x1 = 0.801	794.44
337.7 K, 119850 kPa, x1 = 0.611	772.4
337.7 K, 119860 kPa, x1 = 0.801	797.03
337.71 K, 950 kPa, x1 = 0.611	677.6
337.71 K, 1150 kPa, x1 = 0.4	716.73
337.71 K, 1150 kPa, x1 = 0.8992	716.73
337.71 K, 5000 kPa, x1 = 0.4	722.27
337.71 K, 5000 kPa, x1 = 0.8992	722.27
337.71 K, 9990 kPa, x1 = 0.4	728.91
337.71 K, 9990 kPa, x1 = 0.8992	728.91
337.71 K, 14960 kPa, x1 = 0.4	735.03
337.71 K, 14960 kPa, x1 = 0.8992	735.03
337.71 K, 19960 kPa, x1 = 0.4	740.75
337.71 K, 19960 kPa, x1 = 0.8992	740.75
337.71 K, 24950 kPa, x1 = 0.4	746.11
337.71 K, 24950 kPa, x1 = 0.8992	746.11
337.71 K, 29870 kPa, x1 = 0.801	735.19
337.71 K, 29930 kPa, x1 = 0.4	751.13
337.71 K, 29930 kPa, x1 = 0.8992	751.13
337.71 K, 34930 kPa, x1 = 0.4	755.89
337.71 K, 34930 kPa, x1 = 0.8992	755.89
337.71 K, 39920 kPa, x1 = 0.4	760.43
337.71 K, 39920 kPa, x1 = 0.8992	760.43
337.71 K, 44840 kPa, x1 = 0.492	715.3
337.71 K, 49900 kPa, x1 = 0.4	768.86
337.71 K, 49900 kPa, x1 = 0.8992	768.86
337.71 K, 54890 kPa, x1 = 0.4	772.81
337.71 K, 54890 kPa, x1 = 0.8992	772.81
337.71 K, 64860 kPa, x1 = 0.4	780.28
337.71 K, 64860 kPa, x1 = 0.8992	780.28
337.71 K, 69930 kPa, x1 = 0.492	733.51
337.71 K, 74770 kPa, x1 = 0.7024	757.51
337.71 K, 74840 kPa, x1 = 0.4	787.15
337.71 K, 74840 kPa, x1 = 0.8992	787.15
337.71 K, 74910 kPa, x1 = 0.492	736.73
337.71 K, 79750 kPa, x1 = 0.7024	760.71
337.71 K, 79820 kPa, x1 = 0.4	790.43
337.71 K, 79820 kPa, x1 = 0.8992	790.43
337.71 K, 79900 kPa, x1 = 0.492	739.82
337.71 K, 84890 kPa, x1 = 0.492	742.8
337.71 K, 89860 kPa, x1 = 0.801	780.47
337.71 K, 89870 kPa, x1 = 0.492	745.68
337.71 K, 94760 kPa, x1 = 0.4	799.66
337.71 K, 94760 kPa, x1 = 0.8992	799.66
337.71 K, 94820 kPa, x1 = 0.611	759.24
337.71 K, 94840 kPa, x1 = 0.492	748.47
337.71 K, 94840 kPa, x1 = 0.801	783.46
337.71 K, 99730 kPa, x1 = 0.4	802.55
337.71 K, 99730 kPa, x1 = 0.8992	802.55
337.71 K, 99820 kPa, x1 = 0.492	751.17
337.71 K, 104700 kPa, x1 = 0.4	805.37
337.71 K, 104700 kPa, x1 = 0.8992	805.37
337.71 K, 104790 kPa, x1 = 0.611	764.72
337.71 K, 104800 kPa, x1 = 0.492	753.81
337.71 K, 104800 kPa, x1 = 0.801	789.1
337.71 K, 109680 kPa, x1 = 0.4	808.11
337.71 K, 109680 kPa, x1 = 0.8992	808.11
337.71 K, 109770 kPa, x1 = 0.492	756.37
337.71 K, 109850 kPa, x1 = 0.611	767.36
337.71 K, 114650 kPa, x1 = 0.4	810.79
337.71 K, 114650 kPa, x1 = 0.8992	810.79
337.71 K, 114850 kPa, x1 = 0.492	758.9
337.71 K, 114860 kPa, x1 = 0.611	769.89
337.71 K, 119620 kPa, x1 = 0.4	813.4
337.71 K, 119620 kPa, x1 = 0.8992	813.4
337.71 K, 119840 kPa, x1 = 0.492	761.32
337.71 K, 124840 kPa, x1 = 0.492	763.7
337.71 K, 124850 kPa, x1 = 0.801	799.52
337.71 K, 129550 kPa, x1 = 0.4	818.42
337.71 K, 129550 kPa, x1 = 0.8992	818.42
337.71 K, 129840 kPa, x1 = 0.801	801.97
337.71 K, 129850 kPa, x1 = 0.492	766
337.72 K, 44910 kPa, x1 = 0.4	764.73
337.72 K, 44910 kPa, x1 = 0.8992	764.73
337.72 K, 59870 kPa, x1 = 0.4	776.58
337.72 K, 59870 kPa, x1 = 0.8992	776.58
337.72 K, 84800 kPa, x1 = 0.4	793.6
337.72 K, 84800 kPa, x1 = 0.8992	793.6
337.72 K, 89780 kPa, x1 = 0.4	796.66
337.72 K, 89780 kPa, x1 = 0.8992	796.66
337.72 K, 99810 kPa, x1 = 0.611	762.02
337.72 K, 124590 kPa, x1 = 0.4	815.94
337.72 K, 124590 kPa, x1 = 0.8992	815.94
337.72 K, 124870 kPa, x1 = 0.611	774.78
337.72 K, 129860 kPa, x1 = 0.611	777.16
347.61 K, 960 kPa, x1 = 0.7024	676.19
347.61 K, 4840 kPa, x1 = 0.7024	682.43
347.61 K, 9820 kPa, x1 = 0.7024	689.72
347.61 K, 14820 kPa, x1 = 0.7024	696.37
347.61 K, 19810 kPa, x1 = 0.7024	702.46
347.61 K, 24790 kPa, x1 = 0.7024	708.14
347.61 K, 29890 kPa, x1 = 0.7024	713.58
347.61 K, 34890 kPa, x1 = 0.7024	718.57
347.61 K, 39880 kPa, x1 = 0.7024	723.29
347.61 K, 44870 kPa, x1 = 0.7024	727.75
347.61 K, 49860 kPa, x1 = 0.7024	731.98
347.61 K, 54840 kPa, x1 = 0.7024	736.03
347.61 K, 59830 kPa, x1 = 0.7024	739.91
347.61 K, 64820 kPa, x1 = 0.7024	743.63
347.61 K, 69810 kPa, x1 = 0.7024	747.19
347.61 K, 74800 kPa, x1 = 0.7024	750.62
347.61 K, 79780 kPa, x1 = 0.7024	753.92
347.61 K, 84760 kPa, x1 = 0.7024	757.12
347.61 K, 89750 kPa, x1 = 0.7024	760.21
347.61 K, 94730 kPa, x1 = 0.7024	763.2
